According to the supplement of paper PMC10307832:

Key:
Assay in all cases: relative viability (nuclei count vs DMSO), 5 days (fraction); higher = more cells survive
[1] = compound: CC(C)C[C@H](NC(=O)[C@H](Cc1ccccc1)NC(=O)c1cnccn1)B(O)O [Bortezomib] + CCNC(=O)c1noc(-c2cc(C(C)C)c(O)cc2O)c1-c1ccc(CN2CCOCC2)cc1 [Luminespib] (partner 0.01 µM)
Procedure, shortened: (§1)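 A single step with final 0.05% Triton X-100, 1% formaldehyde and 1 ug/ml Hoechst fixed the cells and stained nuclei 5 days after treatment. Lung cancer cell lines in 1536-well plates had been treated by pin tool the day after seeding with one drug alone or a fixed anchor-drug dose plus five library-drug doses (not always all listed) in √10 steps, and nuclei were counted on 4× images. Relative viability is the ratio of nuclei in treated wells to nuclei in vehicle wells, taken as the median of duplicate plates.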

[2] = compound: CC(C)C[C@H](NC(=O)[C@H](Cc1ccccc1)NC(=O)c1cnccn1)B(O)O [Bortezomib] + Cc1nc(NC(=O)N2CCC[C@H]2C(N)=O)sc1-c1ccnc(C(C)(C)C(F)(F)F)c1 [Alpelisib] (partner 2 µM)
Procedure, shortened: as §1

[3] = compound: CC1=CC(=NN1)NC2=CC(=NC(=N2)/C=C/C3=CC=CC=C3)N4CCN(CC4)C + CS(=O)(=O)CCNCc1ccc(-c2ccc3ncnc(Nc4ccc(OCc5cccc(F)c5)c(Cl)c4)c3c2)o1 [Lapatinib] (partner 2 µM)
Procedure, shortened: as §1

[4] = compound: COC1=CC(c2cc3ccccc3[nH]2)=N/C1=C\c1[nH]c(C)cc1C [Obatoclax] + NC(=O)Nc1cc(-c2cccc(F)c2)sc1C(=O)N[C@H]1CCCNC1 [AZD7762] (partner 0.2 µM)
Procedure, shortened: as §1

Cell Line | relative viability ([1]; first compound 0.0002 µM) | relative viability ([1]; first compound 0.000632 µM) | relative viability ([1]; first compound 0.002 µM) | relative viability ([1]; first compound 0.006325 µM) | relative viability ([1]; first compound 0.02 µM) | relative viability ([2]; first compound 0.0002 µM) | relative viability ([2]; first compound 0.000632 µM) | relative viability ([2]; first compound 0.002 µM) | relative viability ([2]; first compound 0.006325 µM) | relative viability ([2]; first compound 0.02 µM) | relative viability ([3]; first compound 0.08 µM) | relative viability ([3]; first compound 0.8 µM) | relative viability ([3]; first compound 2.53 µM) | relative viability ([3]; first compound 8 µM) | relative viability ([4]; first compound 0.01 µM) | relative viability ([4]; first compound 0.03162 µM) | relative viability ([4]; first compound 0.1 µM) | relative viability ([4]; first compound 0.3162 µM) | relative viability ([4]; first compound 1 µM) | relative viability ([3]; first compound 0.253 µM)
NCI-H1993 | 0.799 | 0.807 | 0.991 | 0.428 | 0.4 | 0.697 | 0.617 | 0.708 | 0.462 | 0.484 | 0.76 | 0.772 | 0.605 | 0.561 | 0.769 | 0.789 | 0.898 | 0.818 | 0.536 | 
NCI-H2085 | 0.482 | 0.36 | 0.4 | 0.178 | 0.235 | 0.898 | 1.09 |  | 0.279 | 0.233 | 0.633 | 0.841 | 0.452 | 0.309 | 0.932 | 0.991 | 0.952 | 0.621 | 0.299 | 0.804
NCI-H2087 | 0.163 | 0.145 | 0.164 | 0.0644 | 0.0565 | 0.953 | 1.05 | 0.635 | 0.0664 | 0.0561 | 1.01 | 1.03 | 0.582 | 0.188 | 1.19 | 1.37 | 1.15 | 1.21 | 0.9 | 1.02
NCI-H2126 | 0.864 | 0.904 | 0.821 | 0.543 | 0.213 | 0.765 | 0.758 | 0.741 | 0.737 | 0.206 | 0.729 | 0.713 | 0.629 | 0.464 | 1.08 | 0.951 | 1.05 | 1.06 | 0.974 | 0.813
NCI-H2170 | 0.46 | 0.534 | 0.744 | 0.516 | 0.202 | 0.637 | 0.687 | 0.904 | 0.232 | 0.14 | 0.277 | 0.244 | 0.199 | 0.166 | 0.851 | 0.844 | 0.801 | 0.831 | 0.743 | 0.255
NCI-H2347 | 0.558 | 0.607 | 0.411 | 0.25 | 0.208 | 0.924 | 0.968 | 0.706 | 0.248 | 0.278 | 0.908 | 1.04 | 0.938 | 0.99 | 0.687 | 0.836 | 0.777 | 0.695 | 0.869 | 0.95
NCI-H2405 | 0.685 | 0.763 | 0.615 | 0.227 | 0.189 | 0.812 |  | 0.336 | 0.134 | 0.16 | 1.09 | 1.22 | 0.696 | 0.133 | 0.726 | 0.857 |  | 0.924 | 0.8 | 0.87
NCI-H3122 | 0.103 | 0.0765 | 0.105 | 0.118 | 0.113 | 0.796 | 0.718 | 0.798 | 0.59 | 0.17 | 0.971 | 1.03 | 0.925 | 0.897 | 1.03 | 0.962 | 0.971 | 0.949 | 1 | 0.859
PC-3 [JPC-3] | 0.663 | 0.669 | 0.505 | 0.226 | 0.127 | 1.03 | 1.04 | 0.786 | 0.901 | 0.134 | 0.445 | 0.466 | 0.408 | 0.368 | 0.825 | 0.834 | 0.808 | 0.607 | 0.419 | 0.46
PC-14 | 0.153 | 0.163 | 0.13 | 0.0991 | 0.109 | 0.977 | 0.909 | 1.01 | 0.325 | 0.0573 | 0.334 | 0.278 | 0.248 | 0.0886 | 0.304 | 0.328 | 0.269 | 0.339 | 0.112 | 0.374
RERF-LC-KJ | 1.16 | 1.21 | 0.986 | 0.291 | 0.273 | 0.8 | 0.782 | 0.815 | 0.477 | 0.212 | 0.878 | 0.839 | 0.716 | 0.292 | 1.04 | 0.914 | 0.732 | 0.838 | 0.923 | 0.875
